Measured values from paper PMC5378956, “Inhibition of delta-secretase improves cognitive functions in mouse models of Alzheimer's disease” (Nature Communications, 2017).

Experiments:
primary neurons = assay: LDH release of primary neurons after OGD; type: cell-based, mouse
tau P301S mice = tested on: tau P301S mice
Experimental: Only 2-month-old male mice were used in the present study. Sample size was determined by Power and Precision (Biostat). The animals were randomly allocated to experimental groups. Investigators were blinded to the group allocation during the animal experiments. […] The protocol was reviewed and approved by the Emory Institutional Animal Care and Use Committee. Rabbit anti-tau N368 (1:1,000), and anti-APP585N (1:500) antibody, which specifically recognize the δ-secretase-derived tau and APP fragments respectively, were described previously. […] TUNEL in situ cell death detection kit was from Roche (Indianapolis, IN). […] All chemicals not included above were purchased from Sigma-Aldrich (St. Louis, MO). Recombinant δ-secretase was obtained from Sino Biological (Beijing, China), recombinant cathepsin-S was obtained from Athens Research and Technology (Athens, GA), recombinant caspase-3 and caspase-8 were obtained from Millipore (Billerica, MA).
Synaptic density was determined by electron microscopy as described previously. After deep anaesthesia, mice were perfused transcardially with 2% glutaraldehyde and 3% paraformaldehyde in PBS. Hippocampal slices were post-fixed in cold 1% OsO4 for 1 h. Samples were prepared and examined using standard procedures. Ultrathin sections (90 nm) were stained with uranyl acetate and lead acetate and viewed at 100 kV in a JEOL 200CX electron microscope. Four mice were examined in each group. Synapses were identified by the presence of synaptic vesicles and post synaptic densities.
Electrophysiological analysis was carried out as described previously. […] The hippocampi were cut into 400-μm thick transverse slices with a vibratome. A 0.1 MΩ tungsten monopolar electrode was used to stimulate the Schaffer collaterals. The field excitatory post synaptic potentials (fEPSPs) were recorded in CA1 stratum radiatum by a glass microelectrode filled with a-CSF with resistance of 3–4 MΩ. The stimulation output (Master-8; AMPI, Jerusalem) was controlled by the trigger function of an EPC9 amplifier (HEKA Elektronik, Lambrecht, Germany). fEPSPs were recorded under current-clamp mode. Data were filtered at 3 kHz and digitized at sampling rates of 20 kHz using Pulse software (HEKA Elektronik). The stimulus intensity (0.1 ms duration, 10–30 μA) was set to evoke 40% of the maximum f-EPSP and the test pulse was applied at a rate of 0.033 Hz. LTP of fEPSPs was induced by three theta-burst-stimulation (TBS; 4 pulses at 100 Hz, repeated three times with a 200-ms interval). Paired-pulse facilitation (PPF) was examined by applying pairs of pulses, which were separated by 20–500 ms intervals. The magnitudes of LTP are expressed as the mean percentage of baseline fEPSP initial slope.
The mice were trained in a round, water-filled tub (52′ diameter) in an environment rich with extra maze cues. An invisible escape platform was located in a fixed spatial location 1 cm below the water surface independent of a subject's start position on a particular trial. In this manner, subjects needed to utilize extra maze cues to determine the platform's location. At the beginning of each trial, the mouse was placed in the water maze with their paws touching the wall from 1 of 4 different starting positions (N, S, E, W). […] On reaching the invisible escape platform, subjects were left on it for an additional 5 s to allow for survey of the spatial cues in the environment to guide future navigation to the platform. After each trial, subjects were dried and kept in a dry plastic holding cage filled with paper towels to allow the subjects to dry off. […] The percentage of time that was spent in the quadrant, which previously contained the escape platform during task acquisition, was measured over 60 s. All trials were analysed for latency, swim path length and swim speed by means of MazeScan (Clever Sys, Inc.).
The solution was changed each day.

[1] = tested on: δ-secretase-mediated truncation of tau
Experimental: A half medium was changed to fresh Neurobasal/B27 every 4 days. The neurons were maintained for 13 days in vitro (DIV). Compounds were pre-incubated with primary culture neurons for 30 min. […] The neuronal lysates were prepared for δ-secretase assay.

Nc1ccc(N2CCOCC2)c2nonc12 [compound 11, 7-(morpholin-4-yl)-2,1,3-benzoxadiazol-4-amine]
OGD-induced cell toxicity in neurons from 5XFAD or tau P301S mice (primary neurons; cultured neurons from 5XFAD mice or tau P301S mice): attenuated OGD-induced cell toxicity | neuronal injury induced by OGD in δ-secretase knockout neurons (primary neurons; neurons from δ-secretase knockout mice): did not further protect | neuronal injury (LDH in medium) induced by OGD (primary neurons; wild-type neurons): attenuated neuronal injury | phosphorylation, aggregation and oligomerization of tau (tau P301S mice; 10 mg kg−1 d−1 oral, 3 months): attenuated | cleavage of mouse and human tau after N368 (tau P301S mice; 10 mg kg−1 d−1 oral, 3 months, Western blot): decreased the cleavage | Morris water maze latency to platform (tau P301S mice; five acquisition days): decreased latency to platform | percentage of AT8- and AT100-positive neurons (tau P301S mice; hippocampus and cortex): decreased | percentage of neurons positive of tau N368 (tau P301S mice; hippocampus and cortex, immunohistochemistry): decreased | LTP amplitude (tau P301S mice; mouse, in vivo): significantly elevated the LTP amplitude | behavioural deficits in probe trial (time in target quadrant) (tau P301S mice; mouse, in vivo): ameliorated | dendritic spine density (Golgi stain) (tau P301S mice; mouse, in vivo): increased the density of spines | swim speed (tau P301S mice; mouse, in vivo): not affected | concentrations of IL-1β and TNFα (tau P301S mice; tau P301S mice): reduced the concentrations of inflammatory cytokines IL-1β and TNFα | activity of δ-secretase in the brain (tau P301S mice; wild-type and tau P301S mice, 10 mg kg−1 d−1 oral, 3 months): significantly inhibited | OGD-induced cleavage of human tau (tau N368) [1]: inhibited by compound 11 in a dose-dependent manner
